Laboratory results reported in patent US8461305B2, “L-fucose α1→6 specific lectin” (J-Oil Mills, Inc., priority 2008, dated 2013).

Experiment: frontal affinity chromatography (FAC), association constant to PA sugar chains without L-fucose
Type: binding
Conditions: for association constant Ka: 25 degrees C.
Protocol: The following section will describe a method of calculating an association constant by frontal affinity chromatography (FAC). This method is based on the following principle. […] Then, the elution front end (front) is observed immediately. When there is an affinity with lectin, the elution of the sugar chain is delayed.
The preparation of a lectin column used in the apparatus is performed in the method as described below. 1. Purified lectin is dissolved in 0.1 to 0.2M of NaHCO3 buffer solution (pH 8.3 to 8.5). 2. The lectin is immobilized, via a lectin primary amino group, a carrier such as NHS activated sepharose. 3. Then, the lectin is blocked by Tris buffer solution including primary amine or ethanolamine for example. 4. Lectin-sepharose is suspended in 10 mM Tris buffer, including 0.8% of NaCl (pH 7.4, TBS). Then, lectin immobilized resin is filled in a miniature column (φ2 mm×10 mm, 31.4 μl). 5. The miniature column in which the lectin immobilized resin is filled is protected by a holder and the lectin column is connected to an FAC automatic analysis apparatus (FAC-1, SHIMADZU CORPORATION).
Then, the elution of the PA sugar chain from the column is detected by a fluorescence detector (excitation wavelength/fluorescence wavelength: 310 nm/380 nm).
Based on the detection data, by using the elution front end (Vo) of the sugar chain (PA rhamnose) not interacting with lectin as a reference, the delay (V−Vo) of the elution front end (V) of a sugar chain interacting with lectin is calculated as an interaction strength. Then, based on the following FAC criteria expressions, the association constant (Ka) between the sugar chain and lectin is calculated based on V−Vo and Bt. If the interaction strength (V−Vo value) and the association constant are higher, a higher affinity is caused between lectin and an L-fucose α1→6 sugar chain.
[In the formula, A means substance used for the elution, Ao means the initial concentration of the substance A, B means a immobilized ligand, V means the elution volume, Vo means the elution front end volume of the substance not interacting with the immobilized ligand B at all, Bt means an effective ligand amount, Kd means a dissociation constant (an inverse of the association constant)].
Pyridylaminated (PA) sugar chains shown in FIG. 1 and FIG. 2 were used to frontal affinity chromatography (FAC) analysis. PA sugars were purchased from TAKARA BIO INC., SEIKAGAKU BIOBUSINESS CORPORATION, and Masuda Chemical Industries co., LTD. PA sugar were also obtained by pyridylaminating, by GlycoTAG®(TAKARA BIO INC.), an unlabeled sugar chain or a sugar chain obtained by subjecting a sugar chain to enzyme digestion for example.
Lectin was dissolved in 0.2 M NaHCO3 buffer solution (pH 8.3) including 0.5 M NaCl and coupled to the NHS-activated sepharose (GE Healthcare Bioscience) by following the manufacturer's instructions. Then, lectin immobilized sepharose was suspended in 10 mM Tris buffer (pH 7.4, TBS) including […] and the resultant matter was filled in a miniature column (φ2 mm×10 mm, 31.4 μl).
Frontal affinity chromatography was performed using FAC automatic analysis apparatus (FAC-1, SHIMADZU CORPORATION). In particular, the above-prepared lectin column was inserted to a stainless steel holder and the holder was connected to FAC-1 apparatus. The flow rate and the column temperature were maintained at 0.125 ml/min and 25 degrees C., respectively. After the miniature column was equilibrated by the TBS, an excessive volume (0.5 ml to 4 ml) of a PA sugar chain (3.75 nM or 7.5 nM) was continuously inputted to the column using an automatic sampling apparatus.
The fluorescent strength of the eluate of the PA sugar (excitation wavelength of 310 nm and fluorescence wavelength of 380 nm) was monitored to measure the interaction strength [a difference of the front end eluate to the standard oligosaccharide (PA rhamnose): V−V0]. […]

Pholiota terrestris lectin [PTL, novel L-fucose α1→6 specific lectin purified from the mushroom Pholiota terrestris]
not bound: binding to sugar chain not having L-fucose (FAC)
<1000 M⁻¹: association constant Ka (Sugar chain No. 001) | association constant Ka (Sugar chain No. 002) | association constant Ka (Sugar chain No. 003) | association constant Ka (Sugar chain No. 004) | association constant Ka (Sugar chain No. 005) | association constant Ka (Sugar chain No. 006) | association constant Ka (Sugar chain No. 007) | association constant Ka (Sugar chain No. 008) | association constant Ka (Sugar chain No. 009) | association constant Ka (Sugar chain No. 010) | association constant Ka (Sugar chain No. 011) | association constant Ka (Sugar chain No. 012) | association constant Ka (Sugar chain No. 013) | association constant Ka (Sugar chain No. 014) | association constant Ka (Sugar chain No. 101) | association constant Ka (Sugar chain No. 103) | association constant Ka (Sugar chain No. 104) | association constant Ka (Sugar chain No. 105) | association constant Ka (Sugar chain No. 107) | association constant Ka (Sugar chain No. 108) | association constant Ka (Sugar chain No. 301) | association constant Ka (Sugar chain No. 304) | association constant Ka (Sugar chain No. 305) | association constant Ka (Sugar chain No. 307) | association constant Ka (Sugar chain No. 308) | association constant Ka (Sugar chain No. 313) | association constant Ka (Sugar chain No. 314) | association constant Ka (Sugar chain No. 323) | association constant Ka (Sugar chain No. 501) | association constant Ka (Sugar chain No. 502) | association constant Ka (Sugar chain No. 503) | association constant Ka (Sugar chain No. 504) | association constant Ka (Sugar chain No. 701) | association constant Ka (Sugar chain No. 702) | association constant Ka (Sugar chain No. 703) | association constant Ka (Sugar chain No. 704) | association constant Ka (Sugar chain No. 705) | association constant Ka (Sugar chain No. 706) | association constant Ka (Sugar chain No. 707) | association constant Ka (Sugar chain No. 708) | association constant Ka (Sugar chain No. 709) | association constant Ka (Sugar chain No. 710) | association constant Ka (Sugar chain No. 711) | association constant Ka (Sugar chain No. 712) | association constant Ka (Sugar chain No. 713) | association constant Ka (Sugar chain No. 715) | association constant Ka (Sugar chain No. 716) | association constant Ka (Sugar chain No. 717) | association constant Ka (Sugar chain No. 724) | association constant Ka (Sugar chain No. 725) | association constant Ka (Sugar chain No. 728 (as listed in Table 7)) | association constant Ka (Sugar chain No. 732) | association constant Ka (Sugar chain No. 733) | association constant Ka (Sugar chain No. 734) | association constant Ka (Sugar chain No. 735) | association constant Ka (Sugar chain No. 736) | association constant Ka (Sugar chain No. 737) | association constant Ka (Sugar chain No. 738) | association constant Ka (Sugar chain No. 901) | association constant Ka (Sugar chain No. 902) | association constant Ka (Sugar chain No. 903) | association constant Ka (Sugar chain No. 905) | association constant Ka (Sugar chain No. 906) | association constant Ka (Sugar chain No. 907)
